Measured values published in ChEMBL document CHEMBL1122736, “Replacement of the peptide-backbone amides connecting Tyr-Gly and Gly-Gly in leucine-enkephalin with ketomethylene groups: synthesis and biological activity” (J Med Chem, 1984).

Legend:
[1] = tested on: Mus musculus; assay: Analgesic activity in mice by tail-flick test after intracerebroventricular administration at a dose of 240 ug/mouse after time duration of 2 minutes; no of mice survived / total no of mice tested-6; type: functional
[2] = tested on: Mus musculus; assay: Analgesic activity in mice by tail-flick test after intracerebroventricular administration at a dose of 40 ug/mouse after time duration of 2 minutes; no of mice survived / total no of mice tested-2; type: functional
[3] = tested on: Mus musculus; assay: Analgesic activity in mice by tail-flick test after intracerebroventricular administration at a dose of 48 ug/mouse after time duration of 4 minutes; no of mice survived / total no of mice tested-3; type: functional
[4] = tested on: Mus musculus; assay: Analgesic activity in mice by tail-flick test after intracerebroventricular administration at a dose of 40 ug/mouse after time duration of 8 minutes; no of mice survived / total no of mice tested-3; type: functional
[5] = tested on: Mus musculus; assay: Analgesic activity in mice by tail-flick test after intracerebroventricular administration at a dose of 60 ug/mouse after time duration of 8 minutes; no of mice survived / total no of mice tested-3; type: functional
[6] = tested on: Mus musculus; assay: Analgesic activity in mice by tail-flick test after intracerebroventricular administration at a dose of 40 ug/mouse after time duration of 4 minutes; no of mice survived / total no of mice tested-3; type: functional
[7] = tested on: Mus musculus; assay: Analgesic activity in mice by tail-flick test after intracerebroventricular administration at a dose of 48 ug/mouse after time duration of 2 minutes; no of mice survived / total no of mice tested-2; type: functional
[8] = tested on: Mus musculus; assay: Analgesic activity in mice by tail-flick test after intracerebroventricular administration at a dose of 24.3 ug/mouse after time duration of 2 minutes; no of mice survived / total no of mice tested-12; type: functional
[9] = tested on: Mus musculus; assay: Analgesic activity in mice by tail-flick test after intracerebroventricular administration at a dose of 48 ug/mouse after time duration of 8 minutes; no of mice survived / total no of mice tested-3; type: functional
[10] = target: Opioid receptor (Rattus norvegicus); assay: Concentration required to inhibit the specific binding of tritiated ligand [3H]DADL to opiate receptor by 50%
[11] = tested on: Mus musculus; assay: Analgesic activity in mice by tail-flick test after intracerebroventricular administration at a dose of 60 ug/mouse after time duration of 2 minutes; no of mice survived / total no of mice tested-2; type: functional
[12] = tested on: Mus musculus; assay: Analgesic activity in mice by tail-flick test after intracerebroventricular administration at a dose of 60 ug/mouse after time duration of 4 minutes; no of mice survived / total no of mice tested-3; type: functional
[13] = target: Opioid receptor (Rattus norvegicus); assay: Concentration required to inhibit the specific binding of tritiated ligand [3H]naloxone to opiate receptor by 50%
[14] = tested on: Mus musculus; assay: Analgesic activity in mice by tail-flick test after intracerebroventricular administration at a dose of 12.2 ug/mouse after time duration of 2 minutes; no of mice survived / total no of mice tested-12; type: functional

Row | Compound | Analgesic response [1] | Analgesic response [2] | Analgesic response [3] | Analgesic response [4] | Analgesic response [5] | Analgesic response [6] | Analgesic response [7] | Analgesic response [8] | Analgesic response [9] | IC50 [10] | Analgesic response [11] | Analgesic response [12] | IC50 [13] | Analgesic response [14]
1 | CC(C)C[C@@H](NC(=O)[C@H](Cc1ccccc1)NC(=O)CNC(=O)[C@@H](C)NC(=O)[C@@H](N)Cc1ccc(O)cc1)C(=O)O [DADLE] | 4 |  |  |  |  |  |  |  |  |  |  |  |  | 
2 | CC(C)CC(NC(=O)C(Cc1ccccc1)NC(=O)CCC(=O)CCC(=O)C(N)Cc1ccc(O)cc1)C(=O)O (centres undefined) |  | 1 | 1 | 0 | 0 | 1 | 1 | 6 | 0 | 33 µM | 1 | 1 | 180 µM | 2
